For data set [1], the system named is glioblastoma multiforme cells of line U373. Briefly: Inhibition of growth of glioblastoma multiforme cells, 7 days exposure. Format: cell-based. The procedure: Inhibition of growth of glioblastoma multiforme cells of line U373 by exposure for 7 days to increasing concentrations of compound 109 compared to 10 uM compound 100.
Inhibition of growth of glioblastoma multiforme cells of line U373 by exposure for 7 days to increasing concentrations of compound 110 compared to 10 uM compound 100.
Inhibition of growth of glioblastoma multiforme cells of line […] by exposure for 7 days to increasing concentrations of compound 113 compared to 10 uM compound 100.
Inhibition of Growth of Glioblastoma Multiforme Cells of Line […] by Exposure for 7 Days to Increasing Concentrations of Compound 109, 110, 112, and 113

The test system of data set [2] is Akt. Briefly: Akt phosphorylation after intraperitoneal administration to mice. The format is in vivo. The note with it: given intraperitoneally to normal mice. From the text: The compounds described herein increase the phosphorylation of several regulatory proteins including Akt. At low doses that are non-toxic to mice, these compounds slightly stimulate cell proliferation and increase phosphorylation of Akt in human cancer cells lines tested, including SH-SY5Y.
The mechanism by which the compounds described herein exert their neuroprotective effect may be by increasing the intra-neuronal cell activity of Akt-1 and enhancing the acetylation of neuronal histones. Each of these compounds when given by intraperitoneal injection increase Akt phosphorylation in mouse neurons. This increase in Aky phosphorylation is associated with an increase in the phosphorylation of GSK-3β. Because increased phosphorylation of GSK-3β is known to decrease its activity, chronic suppression of GSK 3β by the compounds described herein may reduce tau phosphorylation. Reduction in tau phosphorylation reduces the formation of paired helical filaments, an intervention that should lessen the progression of tauopathies, including Alzheimer's disease, Parkinson's disease, amyotrophic lateral sclerosis, and other rarer neurodegenerative diseases characterized by abnormal depositions of tau molecules.

The nature of data set [3]: Entry into the brain.
Data set [4] deals with Human Medulloblastoma DAOY cells. Briefly: DAOY xenografts implanted subcutaneously in SCID mice, tumor volume. Format: in vivo. The note with it: subcutaneous DAOY xenografts, 0.12 mg and 0.18 mg doses, two weeks of treatment, vs vehicle (PBS). The method, then:
Medulloblastoma DAOY cells were implanted subcutaneously in the flanks of SCID mice. After 7 days when the implanted tumor cells reached a mass with the average diameter of 6 mm, 6 animals received 0.12 mg of Compound 110, 6 animals received 0.18 mg of Compound 110, and 6 animals, received vehicle (PBS) only. After two weeks of treatment all animals were sacrificed, the subcutaneous tumor masses resected, and their volumes calculated.
Human Medulloblastoma DAOY cells were implanted subcutaneously in the flanks of SCID mice. After 7 days when the implanted tumor cells reached a mass with the average diameter of 6 mm, 6 animals received 0.12 mg of Compound 110, 6 animals received 0.18 mg of Compound 110, and 6 animals received vehicle (PBS) only. After two weeks of treatment, all animals were sacrificed, the subcutaneous tumor masses resected, and their volumes calculated.

Setting [5] is: increasing concentrations, 7 days exposure.

Molecules are shown by their SMILES. Structures can show the parent of a compound that is named as a salt.

Take `CN1CCN(C(=O)C2C3CCC(O3)C2C(=O)OCC(Cl)(Cl)Cl)CC1` (centres unmarked) [Compound 113, 3-(4-Methyl-piperazine-1-carbonyl)-7-oxa-bicylco[2,2,1]heptane-2-carboxylic acid 2,2,2-trichloroethyl ester]: in data set [1] (setting [5]), the “inhibition of cell growth” value was “inhibited cell growth in a dose dependent manner”. Also, in data set [2], the Akt phosphorylation result is reported as “increased Akt phosphorylation”. For the same molecule, the “entry into the brain” value in data set [3] is reported as “properties that enhance their entry into the brain”.

In the case of `O=C(O)C1C2CCC(O2)C1C(=O)NCCN1C(=O)NC(c2ccccc2)(c2ccccc2)C1=O` (centres unmarked) [Compound 114, 3-[2-(2,5-Dioxo-4,4-diphenyl-imidazolidin-1-yl)-ethylcarbamoyl]-7-oxa-bicyclo(2.2.1]heptane-2-carboxylic acid], in data set [3], the “entry into the brain” value is “properties that enhance their entry into the brain”.

With `CN1CCN(C(=O)C2C3CCC(O3)C2C(=O)Oc2ccc(CC(N)C(=O)O)cc2)CC1` (centres unmarked) (as salt: hydrochloride) [Compound 110, 3-(4-Methylpiperazine-1-carbonyl)-7-oxa-bicyclo[2,2,1]heptane-2-carboxylic acid 4-(2-amino-2-carboxyethyl)-phenyl ester hydrochloride salt], the melting point is 110 °C (dec.).

In the case of `O=C(OCc1ccccc1)C1C2CCC(O2)C1C(=O)N1CCN(CCO)CC1` (centres unmarked) [Compound 109, 3-[4-(2-Hydroxyethyl)-piperazine-1-carbonyl]-7-oxa-bicyclo[2.2.1]heptane-2-carboxylic acid benzyl ester], in data set [1] (highest concentrations, after 3 day), the “inhibition of cell growth” value was “slight inhibition of cell growth”. In addition, in data set [1] (lower concentrations, increasing over 7 days), the “stimulation of cell growth” value is “slight stimulatory activity”.

Turning to `CN1CCN(C(=O)C2C3CCC(O3)C2C(=O)Oc2ccc(CC(N)C(=O)O)cc2)CC1` (centres unmarked) [Compound 110, 3-(4-Methylpiperazine-1-carbonyl)-7-oxa-bicyclo[2,2,1]heptane-2-carboxylic acid 4-(2-amino-2-carboxyethyl)-phenyl ester hydrochloride salt], in data set [4], the “inhibition of tumor growth (tumor volume)” value is listed as “significant inhibition of tumor growth”. Also, the “inhibition of cell growth” value in data set [1] (setting [5]) is “inhibited cell growth in a dose dependent manner”. For the same molecule, the Akt phosphorylation result in data set [2] is recorded as “increased Akt phosphorylation”. For the same molecule, the “entry into the brain” value in data set [3] is recorded as “properties that enhance their entry into the brain”.

With `CN1CCN(C(=O)C2C3CCC(O3)C2C(=O)Oc2ccc(CC(NC(=O)OC(C)(C)C)C(=O)O)cc2)CC1` (centres unmarked) [Compound 112, 3-(4-Methylpiperazine-1-carbonyl)-7-oxa-bicyclo[2,2,1]heptane-2-carboxylic acid 4-(2-tert-butoxycarbonylamino-2-carboxyethyl)-phenyl ester], the melting point is 165 °C (dec.). Besides, the “inhibition of cell growth” value in data set [1] (setting [5]) was “inhibited cell growth in a dose dependent manner”. In data set [3], the “entry into the brain” value was “properties that enhance their entry into the brain”.

The values are drawn from US8541458B2, “Oxabicycloheptanes and oxabicycloheptenes, their preparation and use” (Lixte Biotechnology, Inc., priority 2008, dated 2013).
